Assay results from US12514843B2, “Biofilm disruption” (QBIOTICS PTY LTD, priority 2019, dated 2026).

Experiments:
[1] = system: human adult dermal fibroblasts (HDF); experiment: Microarray gene expression in fibroblasts in vitro; format: cell-based; conditions: 170 nM, within 2 to 4 hours
Description: In addition to disrupting the structure of biofilms comprising Gram-negative bacteria, effects of epoxytiglienones on regulation of genes involved in host response to bacterial infection were investigated in microarray studies with human adult epidermal keratinocytes (HEKa) and human adult dermal fibroblasts (HDF) in vitro.
For these studies, HEKa were cultured in EpiLife® Medium supplemented with Supplement S7 (both from Life Technologies, Carlsbad, CA, USA), while HDF were cultured in Medium 106 supplemented with LSGS (Low Serum Growth Supplement) (both from Life Technologies). Cells where then treated with vehicle or 170 nM Compound 4 for 0, 0.5, 1, 2, 4, 8, 24, 48 and 72 hours. RNA was extracted using a Qiagen RNeasy mini kit and biotinylated using an Illumina TotalPrep RNA Amplification Kit (Ambion, Austin, TX, USA). Labelled RNA was hybridised to HumanHT-12 v4 BeadChip Arrays (Illumina Inc, San Diego, CA, USA) and scanned according to standard Illumina protocols. Data were extracted in GenomeStudio (Illumina) using default analysis settings and no normalisation method. Resulting data were imported into GeneSpring GX (Agilent, Santa Clara, CA, USA. Expression values were normalised using quantile normalisation with default settings.

[2] = system: isolated human neutrophils; experiment: NETosis/necrosis assay, Hoescht/Sytox Green fluorescence; format: cell-based
Description: For these assays, neutrophils were isolated from fresh blood of a healthy human donor by lysis of a red blood cell pellet that had been obtained by Ficoll-Paque sedimentation. The neutrophils (˜4×10^6 cells/mL) were incubated with 10 μg/mL dihydroethidium (DHE) (Sigma-Aldrich) in complete culture medium at 37° C. for 15 min alongside an aliquot of unstained cells to be tested as unstained control.
NETosis/necrosis assays followed methods fully described by Brinkmann et al. 2010. Isolated neutrophils were plated into 96-well plates (RPMI1640, 10% FCS) and incubated with a 1:50,000 dilution of Hoescht (10 mg/mL) and Sytox® Green (5 mM). Compound 4 was added at six concentrations (0.005, 0.05, 0.5. 5, 50, 500 μM) and the cells incubated at 37° C., 5% CO2. Vehicle treated controls were included in all assays and there were three replicates of each assay. Hoescht/Sytox® Green fluorescence images were recorded for each well at 3 and 6 hours.

[3] = system: P. aeruginosa PAO1 biofilm; experiment: Disruption of established in vitro biofilm, CLSM with COMSTAT image analysis; format: cell-based, Pseudomonas aeruginosa; conditions: 256 μg/mL
Description: (§1) Biofilms of E. coli IR57 were grown on 96-well glass-bottomed plates in Mueller-Hinton (MH) broth for 24 h, before 50% of the supernatant was replaced with fresh MH broth with or without the epoxytiglienone compound added to a final concentration of 256 μg/mL (vehicle is ethanol). An ethanol equivalent blank was used as a further control treatment. The plates were then incubated for a further 24 h at 37° C.
(§2) Confocal laser scanning microscopy (CLSM) was then used to image the biofilms, following staining with Live/Dead® Baclight stain with phosphate buffered saline (PBS) added to each well before imaging with z-stack CLSM. The resultant images were analysed by COMSTAT software to produce measurements of (i) biofilm biomass volume or bio-volume (μm^3/μm^2) and (ii) DEAD/LIVE bacterial ratio.
The effects of the epoxytiglienones (Compounds 1, 4, 6 and the comparator compound CC-1) on disruption of established in vitro biofilms were further investigated with two other species of Gram-negative bacteria (Pseudomonas aeruginosa PA01 and Acinetobacter baumannii 7789) using methods described in Example 2 above. Cell permeabilisation following Compound 1, 4 and 6 treatment was also determined using SYTOX™ Green Nucleic Acid Stain with untreated control and positive control of 70% isopropanol.

[4] = system: E. coli IR57 biofilm; experiment: as above; format: cell-based, Escherichia coli; conditions: E. coli IR57 24 h biofilm, 256 μg/mL, further 24 h; vs untreated and ethanol blank controls
Description: The effects of administration of Compounds 1, 4 and 6 and comparator compound CC-1 on disruption of established in vitro biofilms of Escherichia coli (E. coli) was investigated using methods described in Powell et al. (2018).
as §1, §2

[5] = system: chronic biofilm infection; experiment: Diabetic murine model of chronic biofilm infection (excisional wound); format: in vivo, db/db diabetic mice; conditions: 0.3 mg/mL in hydrogel, topical at 24 h, 8 and 15 days; assessed day 21 to 28 post wounding; 7 mice
From the text: The effects of administration of Compound 4 on biofilm infection in vivo was studied in a diabetic murine model of chronic biofilm infection (Zhao et al. 2010). In this study we used methods described by Dhall et al. (2014) in which bacterial biofilm infections develop spontaneously following wound creation.
Briefly, db/db diabetic mice (>6 months old) were housed for 4-5 weeks in non-sterile conditions prior to the creation of wound on the back of each mouse with a 6 mm diameter excisional punch biopsy. Mice were then administered a catalase inhibitor intra-peritoneally (1 g/kg aminotriazole) and a glutathione peroxidase (GPx) inhibitor topically around the edge of the wound site (1 g/kg mercaptosuccinic acid) prior to dressing with Tegaderm. After 24 h, biofilms were evident at the wound site on all mice. The mice where divided into two groups (7 mice per group) and treated with either Compound 4 (0.3 mg/mL in a hydrogel vehicle) or a Control treatment (hydrogel vehicle only). The Tegaderm dressing was the then replaced. Two further administrations of Compound 4 or the Control (vehicle only) were performed at 8 and 15 days. No antibiotics or other antibacterial treatments were applied during the study.
The presence of biofilm and the surface area of the wound were assessed over the course of the study. […]

For CCCCCC(=O)OC1C(C)C2(O)C(C3OC3(CO)C(O)C3(O)C(=O)C(C)=CC32)C2C(C)(C)C12OC(=O)CCCCC (centres unmarked) [Compound 4, 12,13-dihexanoyl-6,7-epoxy-4,5,9,12,13,20-hexahydroxy-1-tiglien-3-one], the “expression of chemokines/cytokines involved in PMNL recruitment (IL8, CXCL1)” value [1] was “significant upregulation”, the “chromatin appearance in neutrophils (more diffuse)” value ([2]; 50 μM) was “NETosis has occurred” and the “chromatin appearance in neutrophils (condensed)” value ([2]; 500 μM) was “necrosis has occurred”. The “NETosis and necrosis of neutrophils” value ([2]; 3 hours after treatment, 50 μM and 500 μM) was “initially observed”, the “NETosis and necrosis of neutrophils” value ([2]; 6 hours, four lower concentrations 0.005 μM-5 μM) was “evident” and the “biofilm distribution (CLSM)” value ([3]; compared to other treatments) was “significant effect”. The “biofilm bio-volume (COMSTAT)” value ([3]; compared to other treatments (P<0.05)) was “significant effect”, the DEAD/LIVE bacterial ratio ([3]; vs untreated and ethanol blank controls) was “no significant differences” and the “biofilm bio-volume (COMSTAT)” value [4] was “Decreases in bio-volume were evident”. For the same compound, the “distribution and density of bacteria in the biofilm (CLSM)” value [4] was “significant changes” and the “mice with complete wound healing (complete re-epithelialisation, resolution of inflammation, absence of bacteria within the dermis)” value [5] was 6 of the 7.
